According to the NIST ThermoML archive (doi:10.1016/j.fluid.2012.07.027):

Conditions: Liquid, Ebulliometric method (Recirculating still)

CCCCCOCCOCCOCCCCC [1-(2-(2-(pentyloxy)ethoxy)ethoxy)pentane]
Conditions	vapor or sublimation pressure [kPa]
427.5 K	2
437.5 K	3
444.6 K	4
450.3 K	5
455.1 K	6
459.3 K	7
461.2 K	7.5
463 K	8
466.2 K	9
469.1 K	10
471.7 K	11
474.1 K	12
476.3 K	13
478.6 K	14
480.7 K	15
488.8 K	20
495.7 K	25
